Reference: patent US8080577B2, “Diindolylmethane formulations for the treatment of leiomyomas” (Bioresponse, L.L.C., priority 2004, dated 2011)
“Also recorded” adds a separate entry of the source.

What was measured:
Assay type in all cases: in vivo, human
[1] = tested on: estrogen metabolites in urine; assay: GCMS assay of urinary estrogen metabolites before and after DIM treatment; conditions: after vs before DIM
Protocol: After informed consent, a pretreatment ultrasound was obtained for each subject. Each subject provided a 12 or 24 hour urine specimen which was frozen. Subject A began taking 2 capsules twice daily of absorption-enhanced DIM (BioResponse, LLC, Boulder Colo.) providing DIM at […]. Subject B took 3 capsules twice daily of absorption-enhanced DIM (BioResponse, LLC, Boulder Colo.) providing DIM at […]. After 2 months of treatment, Subject A was re-evaluated by the same ultrasound technician using the same equipment and at the same phase of their menstrual cycle. A post treatment urine was also obtained, collected at the same point in the menstrual cycle as the baseline urine sample. Similarly, Subject B was re-evaluated after 6 months of treatment using absorption-enhanced DIM (BioResponse-DIM). They took a higher twice daily dose providing […]. Their re-evaluation included pelvic ultrasonography following a series of 3 pre-treatment pelvic ultrasound evaluations all performed with the same equipment. Like Subject A, Subject B provided a before and after DIM treatment urine sample.
The urine samples were tested at the Bradlow/Sepkovic Laboratory, Hackensack University Medical Center, Hackensack, N.J. The technique utilized was an established gas chromatography-mass spectrometry (GCMS) assay for estradiol (E2), estrone (E1), 2-hydroxy estrone (2OH-E1), 4-hydroxy estrone (4OH-E1), 16-hydroxy estrone (16OH-E1), and estriol (E3) in urine (Michnovicz et al., 1997, J Natl Cancer Inst. 89(10):718-23). […] Laboratory analysis is expected to show an increase in 2-hydroxy estrone, and a decrease in 16-hydroxy estrone, as measured in pre-treatment as compared to post-treatment urine samples. […] Results of before and after DIM treatment are presented in Table 8, showing the metabolites of interest as a percent of the total estrogen metabolites measured and as ratios of the amounts of 2OH-E1 to 16OH-E1 (2OH-E1/16OH-E1) determined for each sample. […]

[2] = tested on: estrogen metabolites in urine; assay: as above
uterine leiomyomas = assay: Oral absorption-enhanced DIM in women with uterine leiomyomas, tumor volume by serial pelvic ultrasound; conditions: for Post-DIM Treatment Tumor Volume: oral absorption-enhanced DIM
Protocol: Expected results are clinical improvement in symptoms and reduction of leiomyoma size documented in serial sonograms. […] Women with uterine leiomyomas have been selected based on the findings of abnormal uterine sonograms showing measurable leiomyoma documented on more than one occasion. Three subjects were proceeding to provide a baseline 12-hour urine collection and began to take absorbable DIM 150 to 450 mg [37.5-112 mg actual DIM] twice daily for 3-6 months. Two women have completed participation in a preliminary study, completing 2 and 6 month treatment periods. Subject A was a multiparous person with regular menstrual periods, taking thyroid hormone replacement to correct primary hypothyroidism and using no other medications. Subject B was a person taking no medications with regular periods. After informed consent, a pretreatment ultrasound was obtained for each subject. Each subject provided a 12 or 24 hour urine specimen which was frozen. Subject A began taking 2 capsules twice daily of absorption-enhanced DIM (BioResponse, LLC, Boulder Colo.) providing DIM at […]. Subject B took 3 capsules twice daily of absorption-enhanced DIM (BioResponse, LLC, Boulder Colo.) providing DIM at […]. After 2 months of treatment, Subject A was re-evaluated by the same ultrasound technician using the same equipment and at the same phase of their menstrual cycle. A post treatment urine was also obtained, collected at the same point in the menstrual cycle as the baseline urine sample. Similarly, Subject B was re-evaluated after 6 months of treatment using absorption-enhanced DIM (BioResponse-DIM). They took a higher twice daily dose providing […]. Their re-evaluation included pelvic ultrasonography following a series of 3 pre-treatment pelvic ultrasound evaluations all performed with the same equipment. Like Subject A, Subject B provided a before and after DIM treatment urine sample. The pelvic ultrasound data were analysed using a mathematical formula to calculate the pre-treatment and post-treatment volume of individual leiomyoma based on the widest diameter and the diameter perpendicular to this measured in centimeters (cm). A calculation of individual tumor volume was performed, treating each tumor as an ovoid mass, using the formula: V=4/3π(H/2)^2(L/2), where V=volume in cubic centimeters (cm^3), H=tumor height in centimeters (cm), and L=tumor length in centimeters (cm). This method provided individual tumor volumes in cubic centimeters (cm^3).

uterine leiomyoma = assay: Clinical case: oral absorption-enhanced DIM in a person with symptomatic uterine leiomyoma; conditions: after two months
Protocol: A person was symptomatic from uterine leiomyoma, experiencing painful menses with excessive bleeding, frequency of urination, and inability to exercise due to tiredness. […] A blood test indicated mild anemia. […] The patient initiated therapy with capsules of DIM, formulated for enhanced absorption as described in Example 1. A dose of 120 mg of DIM formulation, given three times per day, delivering 30 mg of actual DIM per dose, was used.

[3] = Subject A, 200 mg/day DIM, taken for 2 months
[4] = Subject B, 300 mg/day DIM, taken for 6 months
[5] = 30 mg actual DIM three times per day

## c1ccc2c(Cc3c[nH]c4ccccc34)c[nH]c2c1 [DIM, 3,3′-diindolylmethane]
[1]; Subject A
  change in 16OH-E1: treatment related reduction
[1]; Subject B, treated at a higher dose
  change in 4OH-E1: treatment related reduction
[1]; both Subjects
  change in 2OH-E1 and the 2OH-E1/16OH-E1 ratio: large treatment related increases
[2]; [3]
  2OH-E1/16OH-E1 ratio, After DIM: 1.7
  2OH-Estrone (2OH-E1), percent of total estrogen metabolites measured, After DIM: 8.3%
  4OH-Estrone (4OH-E1), percent of total estrogen metabolites measured, After DIM: 0.7%
  16OH-Estrone (16OH-E1), percent of total estrogen metabolites measured, After DIM: 4.9%
[2]; [4]
  2OH-E1/16OH-E1 ratio, After DIM: 9.5
  2OH-Estrone (2OH-E1), percent of total estrogen metabolites measured, After DIM: 35%
  4OH-Estrone (4OH-E1), percent of total estrogen metabolites measured, After DIM: 1.7%
Uterine leiomyomas; Subject A, 2 month treatment
  average percent reduction in tumor volume: 33.5%
Uterine leiomyomas; Subject A, Tumor 1, oral DIM 200 mg/day, 2 months
  Percent Decrease in Tumor Volume: 83.11%
Uterine leiomyomas; Subject A, Tumor 1, 200 mg/day DIM, 2 months
  Post-DIM Treatment Tumor Volume: 3.783 cm^3
Uterine leiomyomas; Subject A, Tumor 2, oral DIM 200 mg/day, 2 months
  Percent Decrease in Tumor Volume: 2.06%
Uterine leiomyomas; Subject A, Tumor 2, 200 mg/day DIM, 2 months
  Post-DIM Treatment Tumor Volume: 114.4901 cm^3
Uterine leiomyomas; Subject A, Tumor 3, oral DIM 200 mg/day, 2 months
  Percent Decrease in Tumor Volume: 15.32%
Uterine leiomyomas; Subject A, Tumor 3, 200 mg/day DIM, 2 months
  Post-DIM Treatment Tumor Volume: 53.2 cm^3
Uterine leiomyomas; Subject B, 6 month treatment
  average reduction in tumor volume: 78.6%
Uterine leiomyomas; Subject B, Tumor 1, oral DIM 300 mg/day, 6 months
  Percent Decrease in Tumor Volume: 71.9605%
Uterine leiomyomas; Subject B, Tumor 1, 300 mg/day DIM, 6 months
  Post-DIM Treatment Tumor Volume: 5.575 cm^3
Uterine leiomyomas; Subject B, Tumor 2, oral DIM 300 mg/day, 6 months
  Percent Decrease in Tumor Volume: 47.75%
Uterine leiomyomas; Subject B, Tumor 2, 300 mg/day DIM, 6 months
  Post-DIM Treatment Tumor Volume: 1.877 cm^3
Uterine leiomyomas; Subject B, Tumor 3, oral DIM 300 mg/day, 6 months
  Percent Decrease in Tumor Volume: 38.51%
Uterine leiomyomas; Subject B, Tumor 3, 300 mg/day DIM, 6 months
  Post-DIM Treatment Tumor Volume: 6.094 cm^3
Uterine leiomyomas; Subject B, Tumor 4, oral DIM 300 mg/day, 6 months
  Percent Decrease in Tumor Volume: 53.06%
Uterine leiomyomas; Subject B, Tumor 4, 300 mg/day DIM, 6 months
  Post-DIM Treatment Tumor Volume: 0.8849 cm^3
Uterine leiomyomas; Subject B, Tumor 5, oral DIM 300 mg/day, 6 months
  Percent Decrease in Tumor Volume: 62.41%
Uterine leiomyomas; Subject B, Tumor 5, 300 mg/day DIM, 6 months
  Post-DIM Treatment Tumor Volume: 0.7964 cm^3
Uterine leiomyomas; preliminary treatment of women with oral DIM
  leiomyoma size by serial pelvic ultrasound: meaningful reduction of leiomyoma size; also recorded: consistent reduction of intra-uterine leiomyoma size
Uterine leiomyomas; women treated with oral DIM, 2 and 6 months
  side effects associated with reduction in leiomyoma volume: not associated with amenorrhea, hypo-estrogenemia, hot flashes, or other reported side effects
Uterine leiomyoma; [5]
  repeat abdominal exam: no visible or palpable pelvic masses
  repeat pelvic exam: normal appearing uterine cervix and a palpable uterus of much reduced size
Uterine leiomyoma; 120 mg DIM formulation (30 mg actual DIM) three times per day
  myoma-related symptoms described by the patient: normal menstrual flow with normal levels of discomfort and improved energy
